Here are results for 19 compounds from patent publication US8846749B2, “Anticancer-aiding compound, method for preparing the same, anticancer-aiding composition containing the same and method for reducing anticancer drug resistance using the same” (Ewha University-Industry Collaboration Foundation, priority 2009, dated 2014).

pIC50: −log10 of the molar value.

The target in one data set is P-gp (Homo sapiens, UniProt P08183). To be noted: 1 h, 100 μM.
Another data set concerns MCF-7/ADR cells. In words: Effects of compounds on cytotoxicity of daunomycin (SRB staining). The format is cell-based. The following applies: Homo sapiens, NCI/ADR-RES, daunomycin alone (DMSO control), 2-hour incubation, SRB after 3 days. The method, then:
The cells were cultured to confluence on the plate at 37° C. for 24 hours.
At this time, the group to which only DMSO was added in place of the compounds in accordance with the present invention was taken as a control. […] After 3 days, cytotoxicity was examined according to an SRB staining method which is briefly described as follows. Cells were fixed with 10% TCA for one hour, washed 4 times with water, and then dried. An SRB reagent (0.4% w/v in 1% acetic acid) was added to each well and one hour later, the plate was washed 4 times with 1% acetic acid.

Sequence of P-gp (P08183 whole entry): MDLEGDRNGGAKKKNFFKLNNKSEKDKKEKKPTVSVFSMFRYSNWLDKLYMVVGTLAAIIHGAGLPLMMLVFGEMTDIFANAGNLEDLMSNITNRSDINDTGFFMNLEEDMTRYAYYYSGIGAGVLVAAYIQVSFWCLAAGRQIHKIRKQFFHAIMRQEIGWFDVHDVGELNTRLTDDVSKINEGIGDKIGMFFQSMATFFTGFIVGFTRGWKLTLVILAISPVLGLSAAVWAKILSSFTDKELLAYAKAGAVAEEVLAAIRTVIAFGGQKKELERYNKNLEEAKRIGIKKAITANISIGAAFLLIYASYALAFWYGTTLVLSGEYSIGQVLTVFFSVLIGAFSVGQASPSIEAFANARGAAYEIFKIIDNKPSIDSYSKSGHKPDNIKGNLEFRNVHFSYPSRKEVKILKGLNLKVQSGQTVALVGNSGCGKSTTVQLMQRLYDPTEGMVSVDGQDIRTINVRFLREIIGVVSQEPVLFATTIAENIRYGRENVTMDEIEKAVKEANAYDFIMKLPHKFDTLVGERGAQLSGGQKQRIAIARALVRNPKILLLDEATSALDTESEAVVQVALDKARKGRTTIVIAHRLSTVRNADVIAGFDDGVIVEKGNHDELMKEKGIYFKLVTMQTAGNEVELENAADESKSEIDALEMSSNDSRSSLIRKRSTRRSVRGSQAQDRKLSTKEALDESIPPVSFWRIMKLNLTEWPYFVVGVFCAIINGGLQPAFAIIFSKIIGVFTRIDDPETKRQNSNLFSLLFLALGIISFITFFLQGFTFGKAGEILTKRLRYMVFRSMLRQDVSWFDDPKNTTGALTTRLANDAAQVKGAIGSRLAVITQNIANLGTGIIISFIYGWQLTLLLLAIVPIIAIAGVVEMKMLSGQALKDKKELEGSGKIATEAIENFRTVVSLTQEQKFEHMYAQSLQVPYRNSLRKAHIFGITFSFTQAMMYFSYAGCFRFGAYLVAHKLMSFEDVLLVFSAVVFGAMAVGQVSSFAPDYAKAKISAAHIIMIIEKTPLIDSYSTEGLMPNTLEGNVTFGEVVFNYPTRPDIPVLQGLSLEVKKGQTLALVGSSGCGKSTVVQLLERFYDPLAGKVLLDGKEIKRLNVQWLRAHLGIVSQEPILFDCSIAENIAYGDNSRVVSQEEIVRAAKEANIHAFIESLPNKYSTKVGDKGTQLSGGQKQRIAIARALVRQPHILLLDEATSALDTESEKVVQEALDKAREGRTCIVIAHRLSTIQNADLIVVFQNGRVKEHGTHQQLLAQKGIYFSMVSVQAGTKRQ

In turn, `O=c1c2ccccc2sc2cc(OCC(O)CCl)cc(O)c12` (stereo not shown) [Compound 10, 3-(3-chloro-2-hydroxypropoxy)-1-hydroxy-9H-thioxanthen-9-one] yielded a melting point of 151 °C.

Take `O=c1c2ccc3ccccc3c2oc2cc(OCC3CS3)cc(OCC3CS3)c12` (stereo not shown) [Compound 12, 8,10-bis(thiiran-2-ylmethoxy)-7H-benzo[c]xanthen-7-one]: the melting point came to 202 °C. Also, the “Cellular efflux amount of daunomycin (%)” value at P-gp came to 40.39 ± 4.38 %.

Take `COc1cccc2c(=O)c3c(O)cc(OCC4CS4)cc3oc12` (stereo not shown) [Compound 3, 1-hydroxy-5-methoxy-3-(thiiran-2-ylmethoxy)-9H-xanthen-9-one]: the melting point worked out at 187 °C.

In turn, `COc1cc(OCC(O)CCl)cc2oc3ccccc3c(=O)c12` (stereo not shown) [Compound 9, 3-(3-chloro-2-hydroxypropoxy)-1-methoxy-9H-xanthen-9-one] yielded a melting point of 107 °C.

In the case of `O=c1c2ccccc2oc2cc(OCC(O)CO)cc(O)c12` (stereo not shown) [Compound 6, 3-(2,3-dihydroxypropoxy)-1-hydroxy-9H-xanthen-9-one], the melting point is 170 °C.

Regarding `O=c1c2cc3ccccc3cc2oc2cc(OCC3CS3)cc(OCC3CS3)c12` (stereo not shown) [Compound 19, 1,3-bis(thiiran-2-ylmethoxy)-12H-benzo[b]xanthen-12-one], the “Cellular efflux amount of daunomycin (%)” value on P-gp is given as 42.45 ± 7.23 %.

The compound `O=c1c2c(OCC3CO3)cc(OCC3CO3)cc2oc2ccc3ccccc3c12` (stereo not shown) [Compound 17, 9,11-bis(oxiran-2-ylmethoxy)-12H-benzo[a]xanthen-12-one] gave a melting point of 198 to 200 °C.

Turning to `O=c1c2cc3ccccc3cc2oc2cc(OCC3CS3)cc(O)c12` (stereo not shown) [Compound 18, 1-hydroxy-3-(thiiran-2-ylmethoxy)-12H-benzo[b]xanthen-12-one], the “Cellular efflux amount of daunomycin (%)” value at P-gp was found to be 44.15 ± 5.08 %.

The compound `COc1cccc2c(=O)c3c(O)cc(OCC(S)CCl)cc3oc12` (stereo not shown) [Compound 13, 3-(3-chloro-2-mercaptopropoxy)-1-hydroxy-5-methoxy-9H-xanthen-9-one] came in with a melting point of 125 °C.

In the case of `O=c1c2ccccc2oc2cc(OCC(O)CCl)cc(O)c12` (stereo not shown) [Compound 2, 3-(3-chloro-2-hydroxypropoxy)-1-hydroxy-9H-xanthen-9-one], the melting point is 144 °C.

The compound `O=c1c2cc3ccccc3cc2oc2cc(OCC3CO3)cc(O)c12` (stereo not shown) [Example 20, 1-hydroxy-3-(oxiran-2-ylmethoxy)-12H-benzo[b]xanthen-12-one] registered a melting point of 201 to 202 °C.

As to `COc1cccc2c(=O)c3c(O)cc(OCC(O)CO)cc3oc12` (stereo not shown) [Compound 7, 3-(2,3-dihydroxypropoxy)-1-hydroxy-5-methoxy-9H-xanthen-9-one], the melting point was found to be 189 °C.

As for `O=c1c2c(O)cc(OCC3CS3)cc2oc2ccc3ccccc3c12` (stereo not shown) [Compound 14, 11-hydroxy-9-(thiiran-2-ylmethoxy)-12H-benzo[a]xanthen-12-one], the melting point was 167 to 168 °C. On P-gp, the “Cellular efflux amount of daunomycin (%)” value is 64.81 ± 20.45%.

In the data set with MCF-7/ADR cells, `COc1cccc2c1C(=O)c1c(O)c3c(c(O)c1C2=O)C[C@@](O)(C(C)=O)C[C@@H]3O[C@H]1C[C@H](N)[C@H](O)[C@H](C)O1` [DNM, Daunomycin] gave a pIC50 of 4.59.

Compound `O=c1c2c(OCC3CS3)cc(OCC3CS3)cc2oc2ccc3ccccc3c12` (stereo not shown) [Compound 15, 9,11-bis(thiiran-2-ylmethoxy)-12H-benzo[a]xanthen-12-one] returned a melting point of 225 to 226 °C. Moreover, the “Cellular efflux amount of daunomycin (%)” value at P-gp was found to be 40.04 ± 5.33 %.

The compound `COc1cccc2c(=O)c3c(O)cc(OCC(O)CCl)cc3oc12` (stereo not shown) [Compound 1, 3-(3-chloro-2-hydroxypropoxy)-1-hydroxy-5-methoxy-9H-xanthen-9-one] displayed a melting point of 184 °C.

On to `O=c1c2ccccc2sc2cc(OCC(S)CCl)cc(O)c12` (stereo not shown) [Compound 11, 3-(3-chloro-2-mercaptopropoxy)-1-hydroxy-9H-thioxanthen-9-one], for which the melting point is 134 °C.

`COc1cccc2c(=O)c3c(OCC4CS4)cc(OCC4CS4)cc3oc12` (stereo not shown) [Compound 5, 1,3-bis(thiiran-2-ylmethoxy)-5-methoxy-9H-xanthen-9-one] gave a melting point of 240 °C.

`O=c1c2ccccc2sc2cc(OCC3CS3)cc(O)c12` (stereo not shown) [Compound 8, 1-hydroxy-3-(thiiran-2-ylmethoxy)-9H-thioxanthen-9-one] showed a melting point of 149 °C.
